Assays:
HIV-1 [1] = details: SCID-hu mice; Datema et al., 1996; cited from earlier work
HIV-1 [2] = details: certain cultured cells; Cocchi et al., 1995; cited from earlier work
[3] = tested on: fusion mediated by CD4, CXCR4, and the HIV-1 Env protein gp143; test: CHO cell/Jurkat cell fusion assay, β-lactamase/CCF2 FRET readout; format: cell-based; details: CHO gp143/HXB2 cells with Jurkat β-lactamase cells
Method: Jurkat cells expressing β-lactamase (and which naturally express CXCR4 and CD4) were added to the CHO cells and incubated at 37° C. for a period sufficient to allow fusion to occur. The non-fused cells were removed by washing and the fluorogenic 1β-lactamase substrate CCF2/AM was added to the remaining cells. After a 1 hour incubation at room temperature, cell fusion was measured by fluorescence on a fluorescence plate reader. The ratio of emission of the donor dye (7-hydroxycoumarin) over emission of the acceptor dye (fluorescein) was measured.
Fusion is measured by observing the ratio of blue emission (460 nm) to green emission (530 nm). A high ratio indicates more fusion; a low ratio indicates less fusion.
CHO cells expressing gp143/HXB2 were plated in 96-well black, clear-bottom plates (Costar catalogue number 3603) at 5×10^4 cells per well in 200 μl of medium per well. The medium was Iscove's Modified Dulbecco's Medium (Gibco catalogue number 12440-046) supplemented with: 10% fetal bovine serum, G418 (1 mg/ml), 1 mg/ml penicillin/streptomycin (Gibco catalogue number 15140-122), glutamine (2 mM), and HT (ATCC 71-X).
The cells were incubated overnight at 37° C. […]
The plates were read on a Cytofluor II fluorescence plate reader (PerSeptive Biosystems) at 2 scans/cycle. […]

For `c1cc(CN2CCCNCCNCCCNCC2)ccc1CN1CCCNCCNCCCNCC1` [AMD3100], the “inhibition of HIV-1 replication” value (HIV-1 [1]) is listed as “inhibits HIV-1 replication”.
In the case of RANTES, the “suppression of HIV-1 replication” value (HIV-1 [2]) is given as “able to suppress HIV-1 replication”.
With “SDF-1: the natural ligand for CXCR4 (PeproTech Inc.); a chemokine” the “inhibition of fusion (in words)” value [3] was “dose-dependent inhibition of fusion”.
